Source: patent US20110046223A1, “TREATMENT OF NEUROFIBROMATOSIS” (RAMOT AT TEL-AVIV UNIVERSITY LTD., priority 2006, published 2011)

System: Ras-GTP
Assay: steady-state Ras-GTP, GST-RBD pull-down assay
Type: cell-based, human
Settings: 75 μM FTS, 48 hours, TS265P21, 90-8, and ST88-14 cells, P<0.03
Protocol: Unless otherwise indicated, cells were lysed 48 hours after being treated with lysis buffer, as described in Haklai, et al., supra. […] Protein bands were visualized by ECL and quantified by densitometry with Image Master VDS-CL (Amersham) using TINA 2.0 software (Ray Tests). To obtain reliable comparisons between replicated experiments for statistical analysis, a standardization procedure was used, in which the density of each given protein band as recorded with its specific Ab, was normalized. […] The standard average density was defined as 1.0, and each of the individually determined bands was related to this value. […] Actin cytoskeletal elements were labeled with rhodamine-phalloidin, and digital fluorescence images were collected on a Zeiss LSM 510 confocal microscope fitted with fluorescein and rhodamine filters, as described in Gana-Weisz, M., et al., supra.
To determine whether the steady-state levels of active Ras in the MPNST cell lines correlated with neurofibromin deficiency, the GST-Ras binding domain of Raf-1 (RBD) pull-down assay and Western immunoblotting with anti-Ras Ab was performed. […] Thus, the relatively large amounts of Ras-GTP detected in the MPNST cell lines and the relatively small amounts in the non-NF-1 MPNST (FIG. 1D) correlated well with the observed neurofibromin deficiency (FIG. 1C). […]

CC(C)=CCC/C(C)=C/CC/C(C)=C/CSc1ccccc1C(=O)O [FTS, S-farnesylthiosalicylic acid]
reduction in steady-state levels of Ras-GTP: 25%-55%
